Measured values published in ChEMBL document CHEMBL1255493, “In vitro activity of telavancin against a contemporary worldwide collection of Staphylococcus aureus isolates” (2010).
Converted amounts (≈) assume the structure as drawn. The source made the active and inactive calls. No cut-off for these calls is given here.

Columns and labels:
Assay type in all cases: functional
Staphylococcus aureus [1] = experiment: Antibacterial activity against methicillin-resistant Staphylococcus aureus clinical isolates by CLSi method
Staphylococcus aureus [2] = experiment: Antibacterial activity against methicillin-susceptible Staphylococcus aureus clinical isolates assessed as resistant isolates by CLSI method
Staphylococcus aureus [3] = experiment: Antibacterial activity against methicillin-resistant Staphylococcus aureus clinical isolates assessed as susceptible isolates by CLSI method
Staphylococcus aureus [4] = experiment: Antibacterial activity against methicillin-susceptible Staphylococcus aureus clinical isolates assessed as susceptible isolates by EUCAST method
Staphylococcus aureus [5] = experiment: Antibacterial activity against methicillin-resistant Staphylococcus aureus clinical isolates assessed as resistant isolates by CLSI method
Staphylococcus aureus [6] = experiment: Antibacterial activity against methicillin-susceptible Staphylococcus aureus clinical isolates by CLSi method
Staphylococcus aureus [7] = experiment: Antibacterial activity against methicillin-resistant Staphylococcus aureus clinical isolates assessed as susceptible isolates by EUCAST method
Staphylococcus aureus [8] = experiment: Antibacterial activity against methicillin-resistant Staphylococcus aureus clinical isolates assessed as resistant isolates by EUCAST method
Staphylococcus aureus [9] = experiment: Antibacterial activity against methicillin-susceptible Staphylococcus aureus clinical isolates assessed as susceptible isolates by CLSI method
Staphylococcus aureus [10] = experiment: Antibacterial activity against methicillin-susceptible Staphylococcus aureus clinical isolates assessed as resistant isolates by EUCAST method
Staphylococcus aureus [11] = experiment: Antibacterial activity against methicillin-resistant Staphylococcus aureus clinical isolates assessed as susceptibility breakpoint

Compound	MIC50 (Staphylococcus aureus [1]) [µg/mL]	Activity (Staphylococcus aureus [2])	Activity (Staphylococcus aureus [3]) [%]	Activity (Staphylococcus aureus [4]) [%]	Activity (Staphylococcus aureus [5])	MIC50 (Staphylococcus aureus [6]) [µg/mL]	MIC90 (Staphylococcus aureus [6]) [µg/mL]	Activity (Staphylococcus aureus [7]) [%]	Activity (Staphylococcus aureus [8])	Activity (Staphylococcus aureus [9]) [%]	Activity (Staphylococcus aureus [10])	MIC90 (Staphylococcus aureus [1]) [µg/mL]	Activity (Staphylococcus aureus [11])
CC[C@H]1OC(=O)[C@H](C)[C@@H](O[C@H]2C[C@@](C)(OC)[C@@H](O)[C@H](C)O2)[C@H](C)[C@@H](O[C@@H]2O[C@H](C)C[C@H](N(C)C)[C@H]2O)[C@](C)(O)C[C@@H](C)C(=O)[C@H](C)[C@@H](O)[C@]1(C)O [ERYTHROMYCIN]	> 4	25.2%	13.9	74.5	85.6%	≤ 0.25	> 4	14.2	85.6%	74.3	25.2%		
CC(=O)NC[C@H]1CN(c2ccc(N3CCOCC3)c(F)c2)C(=O)O1 [LINEZOLID]	1 (≈ 2.96 µM)	inactive		100	inactive	2 (≈ 5.93 µM)	2 (≈ 5.93 µM)		<0.1%	100	0%	2 (≈ 5.93 µM)	
CCCCCCCCCC(=O)N[C@@H](Cc1c[nH]c2ccccc12)C(=O)N[C@H](CC(N)=O)C(=O)N[C@@H](CC(=O)O)C(=O)N[C@@H]1C(=O)NCC(=O)N[C@@H](CCCN)C(=O)N[C@@H](CC(=O)O)C(=O)N[C@H](C)C(=O)N[C@@H](CC(=O)O)C(=O)NCC(=O)N[C@H](CO)C(=O)N[C@@H]([C@H](C)CC(=O)O)C(=O)N[C@@H](CC(=O)c2ccccc2N)C(=O)O[C@@H]1C	0.25 (≈ 0.154 µM)	inactive	99.9	100	inactive	0.25 (≈ 0.154 µM)	0.5 (≈ 0.309 µM)	99.9	0.1%	100	0%	0.5 (≈ 0.309 µM)	
C[C@H]1COc2c(N3CCN(C)CC3)c(F)cc3c(=O)c(C(=O)O)cn1c23.C[C@H]1COc2c(N3CCN(C)CC3)c(F)cc3c(=O)c(C(=O)O)cn1c23.O [LEVOFLOXACIN]	> 4	6.8%	21.6	92.9	77.9%	≤ 0.5	≤ 0.5	21.6	77.9%	92.9	6.8%	> 4	
CN(C)[C@@H]1C(O)=C(C(N)=O)C(=O)[C@@]2(O)C(O)=C3C(=O)c4c(O)cccc4[C@@](C)(O)[C@H]3C[C@@H]12 [TETRACYCLINE]		5%	80.7	94.2	19.1%	≤ 1	≤ 1	80.1	19.9%	94.6	5.8%		
GENTAMICIN	< 1	3.1%	77.9	96.4	21.1%	< 1	< 1	77.1	22.9%	96.6	3.6%	> 8	
CCC[C@@H]1C[C@@H](C(=O)N[C@@H]([C@H]2O[C@H](SC)[C@H](O)[C@@H](O)[C@H]2O)[C@H](C)Cl)N(C)C1 [CLINDAMYCIN]		4.9%	54.7	94.6	45%	≤ 0.25	≤ 0.25	54.3	45.3%	95	5%	> 2	
CN[C@H](CC(C)C)C(=O)N[C@H]1C(=O)N[C@@H](CC(N)=O)C(=O)N[C@H]2C(=O)N[C@H]3C(=O)N[C@H](C(=O)N[C@H](C(=O)O)c4cc(O)cc(O)c4-c4cc3ccc4O)[C@H](O)c3ccc(c(Cl)c3)Oc3cc2cc(c3O[C@@H]2O[C@H](CO)[C@@H](O)[C@H](O)[C@H]2O[C@H]2C[C@](C)(N)[C@H](O)[C@H](C)O2)Oc2ccc(cc2Cl)[C@H]1O [VANCOMYCIN]	1 (≈ 0.69 µM)	0%	99.9	100	0%	1 (≈ 0.69 µM)	1 (≈ 0.69 µM)	99.9	0.1%	100	0%	1 (≈ 0.69 µM)	
CCCCCCCCCCNCCN[C@@]1(C)C[C@H](O[C@H]2[C@H](Oc3c4cc5cc3Oc3ccc(cc3Cl)[C@@H](O)[C@@H](NC(=O)[C@@H](CC(C)C)NC)C(=O)N[C@@H](CC(N)=O)C(=O)N[C@H]5C(=O)N[C@H]3C(=O)N[C@H](C(=O)N[C@H](C(=O)O)c5cc(O)c(CNCP(=O)(O)O)c(O)c5-c5cc3ccc5O)[C@H](O)c3ccc(c(Cl)c3)O4)O[C@H](CO)[C@@H](O)[C@@H]2O)O[C@@H](C)[C@H]1O [TELAVANCIN]	0.12 (≈ 0.0684 µM)	inactive		100	inactive	0.12 (≈ 0.0684 µM)	0.25 (≈ 0.142 µM)		inactive	100	inactive	0.25 (≈ 0.142 µM)	<=1 ug ml-1
